From patent publication US20050176149A1, “Process for the reversible functional inactivation of the mismatch repair system” (priority 2002, published 2005)
“Also recorded” adds a separate entry of the source.

Assays:
[1] = tested on: intraspecies E. coli Hfr×E. coli F^− conjugational recombination; assay: intraspecies E. coli Hfr×E. coli F^− conjugational recombination (Thr^+ recombinants per Hfr donor); type: cell-based; settings: mutS^+ (wildtype) or mutS^− background
Excerpt: (§1) FIG. 1: Influence of 2-aminopurine (2-AP) on the efficiency of intraspecies E. coli Hfr×E. coli F^− and interspecies S. typhimurium Hfr×E. coli F^− conjugational recombination. Recipient E. coli strains were either mutS^+ (A, C) or mutS^− (B, D). The recombination frequencies for the selected marker (Thr^+) are expressed per Hfr donor after subtracting unmated revertants. Each number represents the mean (± standard error) of at least three independent experiments.
The conjugation experiments have been performed under the previously described conditions (Rayssiguier et al., 1989). The overnight cultures of donor strains (2-4×10^9 cells/ml) comprising the DNA sequence to be introduced and recipient strains comprising the autologous DNA sequences were diluted 50-fold into fresh LB medium, with or without 2-aminopurine (Sigma), and grown with gentle shaking (about 150 rpm) in order to obtain 2-4×10^8 cells/ml. In order to obtain the required concentration of cells, about 3 hours of incubation is required. When cells were treated with 2-AP, the growth was slightly slower (the incubation was about 30 minutes longer) compared to the growth without 2-AP. The 2-AP treatment of the donor and recipient strains before mating is preferred as 2-AP must be incorporated in the DNA during replication in order to saturate mismatch repair. […] Recombinants were scored after incubation of 48 hours at 37° C.

[2] = tested on: interspecies S. typhimurium Hfr×E. coli F^− conjugational recombination; assay: interspecies S. typhimurium Hfr×E. coli F^− conjugational recombination (Thr^+ recombinants per Hfr donor); type: cell-based
Excerpt: as §1
The conjugation experiments have been performed under the previously described conditions (Rayssiguier et al., 1989). The overnight cultures of donor strains (2-4×10^9 cells/ml) comprising the DNA sequence to be introduced and recipient strains comprising the autologous DNA sequences were diluted 50-fold into fresh LB medium, with or without 2-aminopurine (Sigma), and grown with gentle shaking (about 150 rpm) in order to obtain 2-4×10^8 cells/ml. In order to obtain the required concentration of cells, about 3 hours of incubation is required. When cells were treated with 2-AP, the growth was slightly slower (the incubation was about 30 minutes longer) compared to the growth without 2-AP. The 2-AP treatment of the donor and recipient strains before mating is preferred as 2-AP must be incorporated in the DNA during replication in order to saturate mismatch repair. The doses of 2-AP tested were: 25 μg/ml, 50 μg/ml, 75 μg/ml, 100 μg/ml, 300 μg/ml and 600 μg/ml. The effect of 2-AP treatment was already significant when 50 μg/ml of 2-AP was used. […] Mating mixtures were prepared by mixing together Hfr and F^− bacteria in a 1:1 ratio. This mixture was filtered through a sterile 0.45-μm-pore size nitrocellulose filter (2.5 cm diameter), using vacuum filtration equipment (MILLIPORE). The filters with mating mixtures i.e. mixtures with cells comprising autologous and introduced nucleotide sequences were incubated on fresh LB agar plate (with or without 2-aminopurine) prewarmed at 37° C. […] For this purpose, the M9 medium [supplemented with arginine, histidine, leucine, proline and tryptophane (100 μg/ml each), thiamine (30 μg/ml), glucose (0.4%), and nalidixic acid (40 μg/ml) to counter-select the Hfr donor cells] was used. Threonine was not added to the media in order to select Thr^+ recombinants. Recombinants were scored after incubation of 48 hours at 37° C.
The recombination between these two bacterial species, which have about 16% divergence in their genomic sequences, is very low (10^−8-10^−7; FIG. 1A) compared to intraspecies recombination (about 10^−1; FIG. 1C). Inactivation of the mutS or mutL gene in recipient cells according to the present invention using 2-AP increases about 10^3-10^4-fold the frequency of interspecies recombination (FIG. 1B, FIG. 2A and 2B).

MutL protein = target: T1, MutL protein (Escherichia coli, UniProt P23367); assay: identification of the mismatch-repair system component saturated or inhibited by 2-AP (complementation with mutS^+ or mutL^+ plasmids); type: cell-based, E. coli; settings: 2-AP 300 mg/ml (so in the source); plasmids carrying mutS^+ or mutL^+
T1 construct: endogenous in cells; host or cells: E. coli K12 AB1157 derivatives (MX4, MX5); In MX5 (mutL218::Tn10), MutL comes from plasmid pMQ339 (mutL+)
T1 sequence (P23367 whole entry): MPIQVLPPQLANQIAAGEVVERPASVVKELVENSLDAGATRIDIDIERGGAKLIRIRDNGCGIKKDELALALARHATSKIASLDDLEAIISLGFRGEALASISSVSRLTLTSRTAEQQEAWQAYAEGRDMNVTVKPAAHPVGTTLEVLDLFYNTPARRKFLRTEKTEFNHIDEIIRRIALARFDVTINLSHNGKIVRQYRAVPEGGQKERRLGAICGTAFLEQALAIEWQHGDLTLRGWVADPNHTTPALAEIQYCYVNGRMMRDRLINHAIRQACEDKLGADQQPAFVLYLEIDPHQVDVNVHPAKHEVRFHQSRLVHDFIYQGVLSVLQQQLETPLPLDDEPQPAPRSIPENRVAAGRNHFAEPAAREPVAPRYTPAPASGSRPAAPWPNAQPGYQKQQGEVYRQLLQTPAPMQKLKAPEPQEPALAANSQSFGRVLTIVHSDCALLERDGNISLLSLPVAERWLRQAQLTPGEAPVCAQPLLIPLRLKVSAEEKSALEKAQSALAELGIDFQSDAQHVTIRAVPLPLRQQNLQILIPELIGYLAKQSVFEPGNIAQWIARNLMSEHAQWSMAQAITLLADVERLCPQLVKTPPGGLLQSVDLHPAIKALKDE
Procedure: FIG. 2: Identification of the mismatch-repair system component, which is saturated or inhibited with 2-aminopurine (2-AP) treatment. Recipient E. coli strains were either […] (A, B) or mutL^− (C, D). The mismatch repair deficiency was complemented with plasmids carrying mutS^+ (A, B) or mutL^+ genes (C, D). The dose of 2-AP used in these experiments was always 300 mg/ml. The recombination frequencies for the selected marker (Thr^+) are expressed per Hfr donor after subtracting unmated revertants. Each number represents the mean (± standard error) of at least three independent experiments.
Plasmids carrying mutS^+ or mutL^+ genes were indroduced by electrotransformation (using BIO RAD micro pulser apparatus) in MX4 and MX5 strains, respectively.
The conjugation experiments have been performed under the previously described conditions (Rayssiguier et al., 1989). The overnight cultures of donor strains (2-4×10^9 cells/ml) comprising the DNA sequence to be introduced and recipient strains comprising the autologous DNA sequences were diluted 50-fold into fresh LB medium, with or without 2-aminopurine (Sigma), and grown with gentle shaking (about 150 rpm) in order to obtain 2-4×10^8 cells/ml. In order to obtain the required concentration of cells, about 3 hours of incubation is required. […] Recombinants were scored after incubation of 48 hours at 37° C.

[3] = tested on: donor and recipient strains; assay: growth of donor and recipient strains in LB medium with 2-AP; type: cell-based, E. coli; settings: 37° C., compared to growth without 2-AP (about 3 hours)
Procedure: The conjugation experiments have been performed under the previously described conditions (Rayssiguier et al., 1989). The overnight cultures of donor strains (2-4×10^9 cells/ml) comprising the DNA sequence to be introduced and recipient strains comprising the autologous DNA sequences were diluted 50-fold into fresh LB medium, with or without 2-aminopurine (Sigma), and grown with gentle shaking (about 150 rpm) in order to obtain 2-4×10^8 cells/ml. In order to obtain the required concentration of cells, about 3 hours of incubation is required. When cells were treated with 2-AP, the growth was slightly slower (the incubation was about 30 minutes longer) compared to the growth without 2-AP. The 2-AP treatment of the donor and recipient strains before mating is preferred as 2-AP must be incorporated in the DNA during replication in order to saturate mismatch repair. The doses of 2-AP tested were: 25 μg/ml, 50 μg/ml, 75 μg/ml, 100 μg/ml, 300 μg/ml and 600 μg/ml. The effect of 2-AP treatment was already significant when 50 μg/ml of 2-AP was used. […] Mating mixtures were prepared by mixing together Hfr and F^− bacteria in a 1:1 ratio. This mixture was filtered through a sterile 0.45-μm-pore size nitrocellulose filter (2.5 cm diameter), using vacuum filtration equipment (MILLIPORE). […] Recombinants were scored after incubation of 48 hours at 37° C.

Nc1ncc2[nH]cnc2n1 [2-AP, 2-aminopurine]
effect of 2-AP on frequency of intraspecies recombination [1]: not considerably increased; also recorded: not modified
2-AP dose at which the effect on recombination was already significant ([2]; doses tested 25-600 μg/ml): 50 µg/mL
2-AP dose of maximal effect on recombination efficiency ([2]; doses tested 25-600 μg/ml, further increases did not increase recombination efficiency further): 100 µg/mL
2-AP effect on interspecies recombination in mutS^− recipient background ([2]; mutS^− recipient (FIG. 1B) compared with wildtype (FIG. 1A)): not as pronounced as in a wildtype background
2-AP concentration range in which an increase of recombination frequency is seen ([2]; wild-type recipient cells, in particular at and above 75 μg/ml): 50 to 600 µg/mL
component of the MRS titrated or inactivated by the 2-AP treatment (MutL protein): MutL protein
additional incubation time needed to reach 2-4×10^8 cells/ml (slower growth) with 2-AP [3]: about 30 minutes
